Data on 8 compounds can be found in US20140023611A1 (priority 2010, published 2014).

The subject of data set [1] is Uptake of Phosphorus from the Intestine. Briefly: In vivo co-dosing in chow (urine P out / P consumed). Particulars: Rattus norvegicus, feed or water, rats, compound in chow, read-out: Mean % inhibition Urine Pout/P consumed; for inhibition in vivo at 100 mg/kg/day: mean drug dose 100 mg/kg/day. The text has this: Male, 7-week-old Sprague-Dawley rats (Charles-River laboratories international, Hollister, Calif.) were allowed to acclimate for a minimum of 3 days. The experiment was initiated by switching animals to a synthetic diet (0.6% phosphorus and 0.6% calcium, Harlan Teklad TD.84122) for four days. After this time, the animals were placed into metabolic cages for daily monitoring of food and water consumption, as well as urine and fecal collections. Test compounds were incorporated into the powdered diet listed above containing 3% chocolate flavoring (w/w, BioServ #7345) at 1.3 mg test compound per gram of diet to achieve an average daily nominal dose of 100 mg/kg/day. The actual dose received by each animal was later determined by measuring prepared diet consumption and body weight. Urine samples were collected in three daily periods from 24-48, 48-72, and 72-96 hours of drug dosing. Averaging these three 24 h periods allows for the more representative measurements of urination, fecal excretion, food consumption and water uptake for each animal. Phosphorus levels in the urine were determined by anion exchange chromatography using a Dionex ICS-3000 ion chromatography system. Urine samples were diluted 1:500 or 1:1000 and injected onto an IonPac AS18 analytical column (2×250 mm) using a potassium hydroxide eluent. Elution of urine phosphate ions was monitored via conductivity detector and reported as ppm relative to a standard ion solution containing phosphate. Daily urinary P output relative to the P consumed in the prepared diet for each animal was calculated. The percentage inhibition of phosphorus absorption was estimated by determining the reduction of this ratio compared to the control group (animals with no drug in chow). The differences between the means of control and treated groups were evaluated by t tests. In all experiments, one group was always included that had Renvela powder blended into their chow at 0.9% targeting a dose of 750 mg/kg.

A short description of data set [2]: Determination of compound Cmax and AUC after oral gavage (plasma LC-MS/MS). The class given is in vivo, Sprague-Dawley rats. Particulars: Sprague-Dawley, rat, plasma, po, Structure (I) examples, Table 15, actual oral dose 3-15 mg/kg, plasma 0.5-4 h. The gist of the method: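 Plasma exposure measured by LC-MS/MS after acetonitrile precipitation with internal standard, quantified against a standard curve made in plasma. Compound given orally by gavage to Sprague-Dawley rats at nominal 2.5 or 10 mg/kg, with K2EDTA plasma sampled at 0.5, 1, 2 and 4 h.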

Data set [3] in a line: Stability of compounds in simulated intestinal fluid (SIF). The class given is in vitro ADME. Conditions: simulated intestinal fluid (3 mg/mL pancreatin), incubation time 6 hr, relative to t=0. The method in brief:
(§1)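 Compounds at […] were incubated 3 or 6 hr in USP simulated gastric fluid with 3 mg/mL pepsin or simulated intestinal fluid with 3 mg/mL pancreatin. Remaining compound was quantified by HPLC-UV or HPLC-MS peak area % and reported as percent of the t=0 level in the same medium.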

Another data set addresses T1, human NaP2b (SLC34A2) (Homo sapiens, UniProt O95436).
T1 construct: host or cells: HEK293
T1 sequence (O95436 1-690): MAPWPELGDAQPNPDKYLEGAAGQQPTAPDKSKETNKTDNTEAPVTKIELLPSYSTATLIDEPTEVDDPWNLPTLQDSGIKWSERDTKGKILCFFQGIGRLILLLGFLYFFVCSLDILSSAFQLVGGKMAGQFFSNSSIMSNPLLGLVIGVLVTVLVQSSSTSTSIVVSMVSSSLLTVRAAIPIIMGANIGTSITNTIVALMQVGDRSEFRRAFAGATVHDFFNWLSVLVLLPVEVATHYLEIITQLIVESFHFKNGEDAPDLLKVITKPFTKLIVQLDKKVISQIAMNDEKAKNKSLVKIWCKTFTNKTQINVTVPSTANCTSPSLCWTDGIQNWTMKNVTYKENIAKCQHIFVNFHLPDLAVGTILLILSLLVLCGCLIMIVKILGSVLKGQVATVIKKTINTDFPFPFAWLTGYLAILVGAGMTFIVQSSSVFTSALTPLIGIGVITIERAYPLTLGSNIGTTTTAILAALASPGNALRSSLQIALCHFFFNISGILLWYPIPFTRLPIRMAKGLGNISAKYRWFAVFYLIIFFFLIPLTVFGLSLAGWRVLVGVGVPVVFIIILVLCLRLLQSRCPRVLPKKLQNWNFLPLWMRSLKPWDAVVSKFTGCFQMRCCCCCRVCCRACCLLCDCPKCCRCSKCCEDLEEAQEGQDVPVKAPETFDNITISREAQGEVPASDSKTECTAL
Description: Inhibition of NaP2b-mediated Pi (33P) uptake in transfected HEK293 cells, human NaP2b. Type of data set: cell-based. Conditions: read-out: pIC50 range for human NaP2b (converted). The gist of the method: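 Uptake of 33P-phosphate (100 uM KH2PO4 carrier, sodium vs choline buffer, pH 7.4) measured after 3-30 min at room temperature, with test compound at twelve concentrations from 0.1 nM to 30 uM in duplicate. Cells were HEK293 transfected with mutated human NaP2b (Thr insertion after 37, N39D) and treated with a PiT-silencing agent. pIC50 values from scintillation counts.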

The target of a further data set is T2, rat NaP2b (SLC34A2) (Rattus norvegicus, UniProt Q9JJ09).
T2 construct: host or cells: HEK293
T2 sequence (Q9JJ09 1-695): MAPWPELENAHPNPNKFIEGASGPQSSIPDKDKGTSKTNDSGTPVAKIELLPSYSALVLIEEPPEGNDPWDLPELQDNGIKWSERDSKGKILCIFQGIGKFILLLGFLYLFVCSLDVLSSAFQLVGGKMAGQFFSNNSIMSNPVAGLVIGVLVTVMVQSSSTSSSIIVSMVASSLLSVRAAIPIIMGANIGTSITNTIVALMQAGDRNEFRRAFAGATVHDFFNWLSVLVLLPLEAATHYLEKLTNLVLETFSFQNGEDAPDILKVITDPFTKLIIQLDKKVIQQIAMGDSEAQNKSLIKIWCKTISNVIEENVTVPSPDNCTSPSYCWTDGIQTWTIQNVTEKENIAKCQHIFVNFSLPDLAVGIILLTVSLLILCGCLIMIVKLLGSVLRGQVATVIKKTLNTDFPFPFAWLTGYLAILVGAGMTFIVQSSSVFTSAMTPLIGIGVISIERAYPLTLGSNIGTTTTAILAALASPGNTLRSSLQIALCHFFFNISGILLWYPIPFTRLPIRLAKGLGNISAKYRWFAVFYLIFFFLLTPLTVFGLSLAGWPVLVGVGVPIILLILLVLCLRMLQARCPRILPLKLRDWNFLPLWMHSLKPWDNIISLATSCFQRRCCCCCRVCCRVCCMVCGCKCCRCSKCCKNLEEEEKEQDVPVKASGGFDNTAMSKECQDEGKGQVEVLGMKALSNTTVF
Briefly: Inhibition of NaP2b-mediated Pi (33P) uptake in transfected HEK293 cells, rat NaP2b. Type of data set: cell-based. Conditions: 33P Pi uptake, 0.1 mM phosphate, value given as pIC50 range. The method in brief: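 The cells transiently expressed NaP2b after Lipofectamine transfection. Each compound was run in duplicate over twelve concentrations, 0.1 nM–30 uM.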

Data set [4] in a line: Stability of compounds in simulated gastric fluid (SGF). The class given is in vitro ADME. Particulars: simulated gastric fluid (3 mg/mL pepsin), incubation time 6 hr, relative to t=0. The method in brief:
as §1

In the case of `CCN(CC)c1ccc(NC(=O)c2cccc(C(=O)N(C)CCN3CCOCC3)c2)c(-c2cc(C(=O)NCc3cccc(C(F)(F)F)c3)ccn2)c1` [Example 25], the inhibition in vivo at 74 mg/kg/day in data set [1] (mean drug dose 74 mg/kg/day) lay within 10 to 30%. Moreover, in data set [2], the AUC (in general, the area under the concentration-time curve, a measure of exposure) is below 30 ng·h/mL and the Cmax (usually the maximum level reached in the sampled fluid or tissue) is below 30 ng/mL.
Take `CCN(CC)c1ccc(NC(=O)c2cccc(CSCCOCCOCCOCCOCCC(=O)NC(CO)(CO)CO)c2)c(-c2cc(C(=O)NCc3cccc(C(F)(F)F)c3)ccn2)c1` [Example 163, 2-(5-(diethylamino)-2-(3-(20-hydroxy-19,19-bis(hydroxymethyl)-17-oxo-5,8,11,14-tetraoxa-2-thia-18-azaicosyl)benzamido)phenyl)-N-(3-(trifluoromethyl)benzyl)isonicotinamide]: the “% remaining, SIF” value in data set [3] is recorded as 60-80%. Also, the IC50 at human NaP2b (SLC34A2) and against rat NaP2b (SLC34A2) was 1 to 7.94 µM throughout. In addition, in data set [4], the “% remaining, SGF” value is recorded as above 80%. Further, the inhibition in vivo at 100 mg/kg/day in data set [1] was at most 10%.
`CCN(CC)c1ccc(NC(=O)c2cccc(CSCCOCCOCCOCCOCCC(=O)N(CCO)CCO)c2)c(-c2cc(C(=O)NCc3cccc(C(F)(F)F)c3)ccn2)c1` [Example 164, 2-(5-(diethylamino)-2-(3-(20-hydroxy-18-(2-hydroxyethyl)-17-oxo-5,8,11,14-tetraoxa-2-thia-18-azaicosyl)benzamido)phenyl)-N-(3-(trifluoromethyl)benzyl)isonicotinamide]: the “% remaining, SIF” value in data set [3] was 60-80%. Also, the values for the IC50 at human NaP2b (SLC34A2) and against rat NaP2b (SLC34A2) were below 1 µM and 1 to 7.94 µM, respectively. Also, in data set [4], the “% remaining, SGF” value is listed as above 80%. For the same compound, in data set [1], the inhibition in vivo at 100 mg/kg/day was at most 10%.
As to `CN(CCOCCOCCOCCC(=O)O)C(=O)c1cccc(C(=O)Nc2ccc(Cl)cc2-c2cc(C(=O)N[C@H]3CCCc4ccccc43)ccn2)c1` [Example 237, (S)-1-(3-(4-chloro-2-(4-(1,2,3,4-tetrahydronaphthalen-1-ylcarbamoyl)pyridin-2-yl)phenylcarbamoyl)phenyl)-2-methyl-1-oxo-5,8,11-trioxa-2-azatetradecan-14-oic acid], in data set [3], the “% remaining, SIF” value is above 80%. Also, the IC50 against rat NaP2b (SLC34A2) was 1 to 7.94 µM. The “% remaining, SGF” value in data set [4] is listed as above 80%. The inhibition in vivo at 130 mg/kg/day in data set [1] (mean drug dose 130 mg/kg/day) is at most 10%.
On to `COCCNC(=O)[C@H]1CCCN(C(=O)c2cccc(C(=O)Nc3ccc(N4CCCCC4)cc3-c3cc(C(=O)N[C@H]4CCCc5ccccc54)ccn3)c2)C1` [Example 254, 2-(2-(3-((S)-3-(2-methoxyethylcarbamoyl)piperidine-1-carbonyl)benzamido)-5-(piperidin-1-yl)phenyl)-N—((S)-1,2,3,4-tetrahydronaphthalen-1-yl)isonicotinamide], for which the “% remaining, SIF” value in data set [3] is above 80%. Besides, the IC50 on human NaP2b (SLC34A2) was below 1 µM. The compound also gave an IC50 against rat NaP2b (SLC34A2) below 1 µM. Moreover, the “% remaining, SGF” value in data set [4] is recorded as above 80%. In addition, in data set [2], the AUC was below 10 ng·h/mL and the Cmax is below 10 ng/mL.
Take `CCN(CC)c1ccc(NC(=O)c2cccc(CCCOCCOCCOCCOCCC(=O)NC(CO)(CO)CO)c2)c(-c2cc(C(=O)NCc3cccc(C(F)(F)F)c3)ccn2)c1` [Example 281]: the “% remaining, SIF” value in data set [3] was 20-40%. The IC50 at human NaP2b (SLC34A2) and at rat NaP2b (SLC34A2) was below 1 µM in each case. The “% remaining, SGF” value in data set [4] was above 80%. In data set [2], the AUC was below 10 ng·h/mL. This compound also showed a Cmax in data set [2] below 10 ng/mL.
For the compound `CCN(CC)c1ccc(NC(=O)c2cccc(C(=O)N(C)CCN3CCN(CCOCCOCCOCCOCCOCCOCCOC)C(=O)C3)c2)c(-c2cc(C(=O)N[C@H]3CCCc4ccccc43)ccn2)c1` [Example 327, (S)—N1-(2-(4-(2,5,8,11,14,17,20-heptaoxadocosan-22-yl)-3-oxopiperazin-1-yl)ethyl)-N3-(4-(diethylamino)-2-(4-(1,2,3,4-tetrahydronaphthalen-1-ylcarbamoyl)pyridin-2-yl)phenyl)-N1-methylisophthalamide], in data set [3], the “% remaining, SIF” value is above 80%. At rat NaP2b (SLC34A2), this compound gave an IC50 of 1 to 7.94 µM. In addition, the “% remaining, SGF” value in data set [4] was above 80%. The inhibition in vivo at 100 mg/kg/day in data set [1] lay within 10 to 30%. Also, in data set [2], the AUC is below 10 ng·h/mL and the Cmax is below 10 ng/mL.
Turning to `CCN(CC)c1ccc(NC(=O)c2cccc(C(=O)N(C)CCN(C)CCOCCOCCOCCNC(=O)OC(C)(C)C)c2)c(-c2cc(C(=O)N[C@H]3CCCc4ccccc43)ccn2)c1` [Example 339, (S)-tert-Butyl 1-(3-(4-(diethylamino)-2-(4-(1,2,3,4-tetrahydronaphthalen-1-ylcarbamoyl)pyridin-2-yl)phenylcarbamoyl)phenyl)-2,5-dimethyl-1-oxo-8,11,14-trioxa-2,5-diazahexadecan-16-ylcarbamate], the “% remaining, SIF” value in data set [3] is above 80%. For the same compound, at human NaP2b (SLC34A2), the IC50 was below 1 µM. At rat NaP2b (SLC34A2), this compound showed an IC50 below 1 µM. In addition, the “% remaining, SGF” value in data set [4] is listed as below 20%. Also, in data set [2], the AUC was below 30 ng·h/mL and the Cmax is below 10 ng/mL.
